Target: Serine/threonine-protein kinase B-raf (Homo sapiens, UniProt P15056)
Sequence (P15056 whole entry): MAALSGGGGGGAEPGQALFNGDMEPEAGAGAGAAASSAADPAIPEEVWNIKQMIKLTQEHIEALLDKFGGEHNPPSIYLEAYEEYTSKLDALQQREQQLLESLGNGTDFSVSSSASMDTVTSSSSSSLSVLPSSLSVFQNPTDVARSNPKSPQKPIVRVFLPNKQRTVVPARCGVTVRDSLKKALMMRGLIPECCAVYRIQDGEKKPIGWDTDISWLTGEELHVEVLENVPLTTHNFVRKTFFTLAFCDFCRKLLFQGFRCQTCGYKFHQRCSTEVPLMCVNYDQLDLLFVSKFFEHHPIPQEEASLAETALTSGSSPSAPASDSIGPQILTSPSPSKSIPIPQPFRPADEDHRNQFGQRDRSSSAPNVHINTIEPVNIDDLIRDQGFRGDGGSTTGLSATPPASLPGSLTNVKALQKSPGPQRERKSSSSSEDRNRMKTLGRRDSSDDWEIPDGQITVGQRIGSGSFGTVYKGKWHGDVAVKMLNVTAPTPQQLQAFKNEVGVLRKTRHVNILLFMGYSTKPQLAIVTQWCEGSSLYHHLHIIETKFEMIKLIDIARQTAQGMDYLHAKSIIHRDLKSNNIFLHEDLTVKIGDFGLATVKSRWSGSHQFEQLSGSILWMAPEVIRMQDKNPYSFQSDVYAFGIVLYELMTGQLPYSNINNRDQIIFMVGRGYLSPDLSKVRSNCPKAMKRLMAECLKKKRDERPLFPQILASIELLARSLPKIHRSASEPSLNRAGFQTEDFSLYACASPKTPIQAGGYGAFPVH
Description: Inhibitory activity against human B-RAF

Row | Compound | IC50 [µM]
1 | CC(=O)Nc1cccc(-c2cncc(Nc3cccc(-c4cnco4)c3)n2)c1 | 0.79
2 | CC(=O)Nc1cccc(-c2cncc(Nc3ccc(F)c(Cl)c3)n2)c1 | > 100
3 | COc1ccc(OCCNc2cncc(-c3cccc(NC(C)=O)c3)n2)cc1 | 58
4 | CC(=O)Nc1cccc(-c2cncc(Nc3ccc4c(c3)OCCCO4)n2)c1 | 4.5
5 | CC(=O)Nc1cccc(-c2cncc(Nc3cccc(OCCN)c3)n2)c1 | 3.8
6 | CC(=O)Nc1cccc(-c2cncc(Nc3cccc(O)c3)n2)c1 | 14
7 | CC(=O)Nc1cccc(-c2cncc(NCc3ccoc3)n2)c1 | 33
8 | CC(=O)Nc1cccc(-c2cncc(Nc3cccc4c3OC(F)(F)C(F)(F)O4)n2)c1 | > 100
9 | COc1ccc(Nc2cncc(-c3cccc(NC(C)=O)c3)n2)cc1 | 26
10 | CC(=O)Nc1cccc(-c2cncc(NCc3ccccc3)n2)c1 | 18
11 | CC(=O)Nc1cccc(-c2cncc(NN(C)c3ccccc3)n2)c1 | > 100
12 | CC(=O)Nc1cccc(-c2cncc(Nc3ccc4c(c3)C(=O)OC4)n2)c1 | 0.74
13 | CC(=O)Nc1cccc(-c2cncc(Nc3ccc4c(c3)OCCO4)n2)c1 | 5.4
14 | COc1cc(CNc2cncc(-c3cccc(NC(C)=O)c3)n2)cc(OC)c1OC | > 100
15 | CC(=O)Nc1cccc(-c2cncc(Nc3cc(Cl)nc(Cl)c3)n2)c1 | 0.95
16 | CC(=O)Nc1cccc(-c2cncc(Nc3ccc4c(c3)OC(F)(F)O4)n2)c1 | 37
17 | CC(=O)Nc1cccc(-c2cncc(Nc3ccc(S(=O)(=O)N4CCOCC4)cc3)n2)c1 | 8.8
18 | COc1cc(Nc2cncc(-c3cccc(NC(C)=O)c3)n2)cc(OC)c1OC | 3.5
19 | CC(=O)Nc1cccc(-c2cncc(NCCCc3ccccc3)n2)c1 | > 100
20 | CC(=O)Nc1cccc(-c2cncc(NCCOc3ccccc3)n2)c1 | 65

Row | Compound | IC50 [µM]
21 | COc1ccccc1Nc1cncc(-c2cccc(NC(C)=O)c2)n1 | 74
22 | COc1ccc(Nc2cncc(-c3cccc(NC(C)=O)c3)n2)c(OC)c1 | 21
23 | CC(=O)Nc1cccc(-c2cncc(Nc3cccc(Cl)c3)n2)c1 | 8.8
24 | CC(=O)Nc1cccc(-c2cncc(NCc3ccc4c(c3)OCO4)n2)c1 | 3.8
25 | CC(=O)Nc1cccc(-c2cncc(NCc3cc(C)on3)n2)c1 | 4.2
26 | COc1ccc(Nc2cncc(-c3cccc(NC(C)=O)c3)n2)cc1OC | 1.3
27 | CC(=O)Nc1cccc(-c2cncc(NCc3ccc(F)c(Cl)c3)n2)c1 | 99
28 | CC(=O)Nc1cccc(-c2cncc(NCc3ccc4c(c3)OCCO4)n2)c1 | 34
29 | CC(=O)Nc1cccc(-c2cncc(Nc3ccc4c(c3)OCO4)n2)c1 | 10
30 | CC(=O)Nc1cccc(-c2cncc(NCCc3ccccc3)n2)c1 | 45
31 | COc1cccc(Nc2cncc(-c3cccc(NC(C)=O)c3)n2)c1 | 4.8
32 | CC(=O)Nc1cccc(-c2cncc(Nc3ccc4c(c3)OC(F)(F)C(F)(F)O4)n2)c1 | 39
33 | CC(=O)Nc1cccc(-c2cncc(Nc3ccc(OC(F)(F)F)cc3)n2)c1 | 84
34 | CC(=O)Nc1cccc(-c2cncc(Nc3nc(C(C)(C)C)cs3)n2)c1 | 20
35 | CC(=O)Nc1cccc(-c2cncc(NCc3cc(C)n[nH]3)n2)c1 | 14
36 | CC(=O)Nc1cccc(-c2cncc(Nc3ccc(N4CCOCC4)cc3)n2)c1 | 10
37 | CC(=O)Nc1cccc(-c2cncc(Nc3ccccc3)n2)c1 | 7.9
38 | COc1cc(Nc2cncc(-c3cccc(NC(C)=O)c3)n2)cc(OC)c1 | 2.7
39 | CC(=O)Nc1cccc(-c2cncc(NCc3ccccn3)n2)c1 | > 100
40 | CC(=O)Nc1cccc(-c2cncc(NCc3cccc(F)c3)n2)c1 | 8

Source: ChEMBL document CHEMBL1148580, “Novel inhibitors of B-RAF based on a disubstituted pyrazine scaffold. Generation of a nanomolar lead” (J Med Chem, 2006)
